Results published in publication PMC5482845 (Scientific Reports, 2017).
Where two headings read alike, the source gives them in different places.

How the values were obtained:
atherosclerotic lesions = system: atherosclerotic lesions; design: method as in PMID 17803269, PMID 14718664; details: orally active; apolipoprotein E knockout mice and low density lipoprotein receptor knockout mice; cited from earlier work
SOAT2 [1] = biological target: T1, SOAT2 (Homo sapiens, UniProt O75908); assay: [14C]CE synthesis in intact hSOAT2-CHO cells (cell-based assay)
T1 construct: expressed in transfected cells; host or cells: CHO cells (AC29, SOAT-deficient)
T1 sequence (O75908 1-522): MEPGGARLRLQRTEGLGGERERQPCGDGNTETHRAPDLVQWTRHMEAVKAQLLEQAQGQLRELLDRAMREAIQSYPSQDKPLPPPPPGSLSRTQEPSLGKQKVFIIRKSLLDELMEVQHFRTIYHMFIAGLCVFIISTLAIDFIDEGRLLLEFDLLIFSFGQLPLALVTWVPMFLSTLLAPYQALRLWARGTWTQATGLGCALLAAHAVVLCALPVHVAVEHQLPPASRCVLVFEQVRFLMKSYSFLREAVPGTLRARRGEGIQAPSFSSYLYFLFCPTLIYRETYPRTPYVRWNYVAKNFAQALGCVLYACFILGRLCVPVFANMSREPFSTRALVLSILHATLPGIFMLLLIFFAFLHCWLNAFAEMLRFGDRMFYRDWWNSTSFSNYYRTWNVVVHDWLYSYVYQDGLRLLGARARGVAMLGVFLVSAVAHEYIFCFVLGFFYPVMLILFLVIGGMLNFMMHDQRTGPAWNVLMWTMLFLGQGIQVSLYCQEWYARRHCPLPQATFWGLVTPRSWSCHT
Method: CHO cells (AC29 cells, SOAT-deficient cells)[37] expressing the SOAT1 or SOAT2 gene from African Green monkeys and humans were cultured by the method described previously.
The assay for the synthesis of [^14C]cholesteryl ester (CE) from [^14C]oleic acid in intact SOAT1- or SOAT2-CHO cells was performed according to our established method.

SOAT2 [2] = biological target: T2, SOAT2 (Chlorocebus aethiops, UniProt O77759); details: enzyme-based assay; African green monkey; cited from earlier work
T2 construct: expressed in transfected cells; host or cells: CHO cells (AC29, SOAT-deficient)
T2 sequence (O77759 1-526): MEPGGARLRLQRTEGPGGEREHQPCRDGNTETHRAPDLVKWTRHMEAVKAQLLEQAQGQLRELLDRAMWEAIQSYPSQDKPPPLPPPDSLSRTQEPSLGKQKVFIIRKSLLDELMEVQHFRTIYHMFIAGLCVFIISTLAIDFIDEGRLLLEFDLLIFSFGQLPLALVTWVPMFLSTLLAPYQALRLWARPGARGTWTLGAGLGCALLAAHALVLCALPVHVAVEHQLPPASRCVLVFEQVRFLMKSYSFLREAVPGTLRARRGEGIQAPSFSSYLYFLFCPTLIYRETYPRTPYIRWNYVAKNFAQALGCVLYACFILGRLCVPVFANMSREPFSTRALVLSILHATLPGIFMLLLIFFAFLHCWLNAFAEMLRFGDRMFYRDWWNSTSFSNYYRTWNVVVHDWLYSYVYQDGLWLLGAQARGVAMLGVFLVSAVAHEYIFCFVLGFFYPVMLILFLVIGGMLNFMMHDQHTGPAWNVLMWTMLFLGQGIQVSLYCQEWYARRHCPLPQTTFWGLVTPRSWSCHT

SOAT2 [3] = biological target: T1, SOAT2; assay: Enzyme-based SOAT assay, microsomes from hSOAT2-CHO cells (Potter-type homogenizer); type: biochemical
Method: An enzyme source from SOAT1-/SOAT2-CHO cells using a Potter-type homogenizer was prepared using our established method[18]. Briefly, SOAT1 or SOAT2-CHO cells (2.0 × 10^8 cells) were homogenized in 5 ml cold buffered sucrose solution (pH 7.2, 100 mM sucrose, 50 mM KCl, 40 mM KH2PO4, and 30 mM EDTA, hereafter referred to as Buffer A) including protease inhibitors (Complete mini (Roche)) in the Potter-type homogenizer. The microsomal fraction was pelleted by centrifugation at 100,000 × g at 4.0 °C for 1.0 h (TLA110, Beckman Coulter), resuspended in the same buffer at a concentration of 5.0 mg protein/ml, and stored at −80 °C until used.
SOAT1 and SOAT2 activities were measured using fractionation prepared as described above as an enzyme source[18]. Briefly, an assay mixture was made containing 500 µg BSA (fatty acid free) and [1-^14C]oleoyl-CoA (20 µM, 3.7 kBq). A test sample (5.0 µl in methanol solution) and microsomes or the ER fractionation of SOAT1- and SOAT2-CHO cells in a total volume of 200 µl Buffer A was incubated at 37 °C. The SOAT reaction was started by adding [1-^14C]oleoyl-CoA. After a 5-min incubation, the reaction was stopped by adding chloroform: methanol (2:1, 1.2 ml). […] After the organic solvent was removed by evaporation, lipids were separated on a TLC plate and the radioactivity of [^14C]CE was measured by our established method[18].

SOAT1 [4] = biological target: T3, SOAT1 (Chlorocebus aethiops, UniProt O77760); details: enzyme-based assay; African green monkey; cited from earlier work
T3 construct: expressed in transfected cells; host or cells: CHO cells (AC29, SOAT-deficient)
T3 sequence (O77760 1-550): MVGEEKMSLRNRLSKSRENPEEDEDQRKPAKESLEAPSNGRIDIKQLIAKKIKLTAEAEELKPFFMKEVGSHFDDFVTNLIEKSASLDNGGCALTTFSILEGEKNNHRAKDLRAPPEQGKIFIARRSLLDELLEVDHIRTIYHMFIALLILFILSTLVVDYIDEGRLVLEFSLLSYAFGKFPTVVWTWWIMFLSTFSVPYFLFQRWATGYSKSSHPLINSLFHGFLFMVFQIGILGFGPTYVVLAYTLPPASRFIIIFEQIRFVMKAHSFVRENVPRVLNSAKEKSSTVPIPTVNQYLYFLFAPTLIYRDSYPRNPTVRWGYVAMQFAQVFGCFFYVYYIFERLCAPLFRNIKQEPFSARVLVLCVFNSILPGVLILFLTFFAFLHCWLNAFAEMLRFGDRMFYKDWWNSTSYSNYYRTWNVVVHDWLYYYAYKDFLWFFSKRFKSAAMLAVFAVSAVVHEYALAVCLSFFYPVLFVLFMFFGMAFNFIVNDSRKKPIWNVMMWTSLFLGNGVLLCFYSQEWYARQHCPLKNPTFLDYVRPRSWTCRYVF

SOAT2 [5] = biological target: T2, SOAT2; details: cell-based assay; African green monkey; cited from earlier work
SOAT1 [6] = biological target: T4, SOAT1 (Mus musculus, UniProt Q61263); assay: Immunofluorescence staining of SOAT1 and Biotin-Beau in mouse peritoneal macrophages; type: cell-based; details: Biotin-Beau 9.8 µM
T4 construct: endogenous in cells; host or cells: primary mouse peritoneal macrophages (ICR mice)
T4 sequence (Q61263 1-540): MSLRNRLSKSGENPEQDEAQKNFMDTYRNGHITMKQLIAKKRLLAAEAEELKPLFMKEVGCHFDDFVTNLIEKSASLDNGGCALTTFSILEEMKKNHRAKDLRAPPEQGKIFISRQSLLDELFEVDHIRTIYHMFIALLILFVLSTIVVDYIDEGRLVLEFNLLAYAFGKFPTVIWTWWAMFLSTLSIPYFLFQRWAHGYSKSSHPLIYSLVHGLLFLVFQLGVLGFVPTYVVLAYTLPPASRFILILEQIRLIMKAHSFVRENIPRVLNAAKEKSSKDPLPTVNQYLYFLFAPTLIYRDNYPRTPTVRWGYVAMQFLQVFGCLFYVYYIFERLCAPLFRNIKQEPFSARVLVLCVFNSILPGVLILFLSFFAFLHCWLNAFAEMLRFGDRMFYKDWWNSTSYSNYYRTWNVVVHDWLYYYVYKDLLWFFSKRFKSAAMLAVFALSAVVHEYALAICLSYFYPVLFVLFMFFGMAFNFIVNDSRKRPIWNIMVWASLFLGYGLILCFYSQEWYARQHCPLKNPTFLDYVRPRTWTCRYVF
Description: Supplementary Experiment Methods
Goat anti-rabbit IgG conjugated to fluorescein isothiocyanate (FITC) was purchased from Sigma-Aldrich (St. Louis, MO). Hank’s balanced salt solution was purchased from Nissui Seiyaku (Tokyo, Japan). Streptavidin conjugated to Alexa Fluor 546 was purchased from Thermo Fisher Scientific (Wa l t h a m , M A). […]
Immunofluorescence staining of SOAT1 and Biotin-Beau in mouse peritoneal […]
Mouse peritoneal macrophages from ICR mice (Japan SLC, Inc., Japan) were prepared as described previously1. Briefly, primary mouse peritoneal macrophages (2.0 x 10^5 cells) with liposomes in each well of a tissue culture chamber (LAB-TEK 8-chamber) were incubated at 37°C in 5.0% CO 2. After a 14-h incubation, cells were washed three times with PBS, fixed with 3.7% formalin for 10 min, and permeabilized with PBS containing 0.10% Tr i t o n X-100 at room temperature for 20 min. […]
After a 1-h incubation, cells were stained with the secondary antibody, a goat anti-rabbit IgG conjugated to FITC ([…]) and streptavidin conjugated to Alexa Fluor 546 (1.0 µg/ml) in blocking buffer, for 1.0 h. Cells were washed three times after the incubation and analyzed with confocal laser scanning microscopy (LSM-510 META, Carl Zeiss, Germany). Images were analyzed with a Zeiss LSM Image Browser (Version 3.5.0.376) […]

SOAT1 [7] = biological target: T3, SOAT1; assay: Interaction of Biotin-Beau-immobilized beads with SOAT1 protein (SDS-PAGE, Western blotting); type: binding, African green monkey; details: microsomes from SOAT1-CHO cells, band at approximately 53 kDa, none from AC29 cells or control beads
Description: The direct interaction between beauveriolide and SOAT1 was investigated. […] Therefore, Biotin-Beau may be employed as a useful bio-probe to investigate interactions between SOAT1 and beauveriolide. Biotin-Beau was attached to acrylamide-based streptavidin beads, and microsomes prepared from SOAT1-CHO cells and AC29 cells (control, SOAT-deficient CHO cells) were applied to the beads. After washing the beads, bound proteins were recovered with Laemmli sample buffer, separated by SDS-PAGE, and stained with the SOAT1 antibody. […] However, no protein was observed from control AC29 cells (lane (1)) or control beads (no Biotin-Beau-carrying beads) (lane (3)).
The microsomal fraction (500 µg protein in 100 µl buffer A) prepared from AC29 (SOAT-deficient CHO cells) or amgSOAT1-CHO cells using the Potter-type homogenizer as described above were mixed with 0.10% (v/v) Triton X-100 on ice for 10 min. Biotin-Beau (10 nmol)[11] was attached to acrylamide-based streptavidin beads (5.0 nmol)[39]. Microsomes (500 µg) prepared from AC29 cells or SOAT1-CHO cells were added to Biotin-Beau-carrying beads and mixed well at 4.0 °C for 1.0 h with a rotator. The beads were collected by centrifugation at 1,000 rpm at 4.0 °C for 5.0 min and washed three times with PBS (300 µl). […] After separation by SDS-PAGE, SOAT1 protein levels was measured as described above.

SOAT1 [8] = biological target: T3, SOAT1; details: cited from earlier work
SOAT1 and SOAT2 = system: SOAT1 and SOAT2; design: method as in PMID 14617738, PMID 17390588, PMID 16820149, PMID 16730694, PMID 16626720; details: cited from earlier work

## CCCC[C@H](C)[C@@H]1CC(=O)N[C@@H](Cc2ccccc2)C(=O)N[C@@H](C)C(=O)N[C@H]([C@@H](C)CC)C(=O)O1 [Beauveriolide III]
Atherosclerotic lesions
  effect on atherosclerotic lesions: reducing atherosclerotic lesions in the aortae and hearts

## CCCC[C@H](C)[C@@H]1CC(=O)N[C@@H](Cc2ccccc2)C(=O)N[C@@H](C)C(=O)N[C@H](CC(C)C)C(=O)O1 [Beauveriolide I]
SOAT2 [1]
  IC50: > 20 µM
SOAT2 [2]
  IC50: 1.9 µM
SOAT2 [3]
  IC50: 1.1 µM

## CCCC[C@H](C)[C@@H]1CC(=O)N[C@@H](C(c2ccccc2)c2ccccc2)C(=O)N[C@H](Cn2cc(CNC(=O)CCCCNC(=O)CCCC[C@@H]3SC[C@@H]4NC(=O)N[C@@H]43)nn2)C(=O)N[C@H](C2CCCCC2)C(=O)O1 [Biotin-labeled beauveriolide]
SOAT1 [4]
  IC50: 0.6 µM
  SI (type): SOAT1 (SOAT1-selective type, SI < −1.00)
SOAT2 [5]
  IC50: > 10 µM
SOAT1 [6]
  cellular localization relative to SOAT1: colocalized with a restricted area of SOAT1 protein distribution
SOAT2 [2]
  IC50: 8 µM
SOAT1 [7]
  binding to SOAT1 protein: bound to the SOAT1 protein
SOAT1 [7]; listed as Biotin-Beau
  binding to SOAT1 protein: directly binds to the SOAT1 protein
SOAT1 [8]; cell-based assay using SOAT1-/SOAT2-CHO cells
  effect on CE synthesis: no effect on CE synthesis
SOAT1 [8]; cell-based assay, African green monkey
  IC50: > 10 µM

## CSc1cc(C)nc(SC)c1NC(=O)CN1CCN(CCSc2nc3ccccc3[nH]2)CC1 [K-604]
SOAT1 and SOAT2
  group of SOAT inhibitor from SI values: SOAT1-selective inhibitors (SOAT1-selective inhibitors (SI, <−1.00))

## CC(C)c1cc(C(C)C)c(CC(=O)NS(=O)(=O)Oc2c(C(C)C)cccc2C(C)C)c(C(C)C)c1 [avasimibe]
SOAT1 and SOAT2
  group of SOAT inhibitor from SI values: dual inhibitors (dual inhibitors (−1.00 ≤ SI ≤+1.00) inhibiting SOAT1 and SOAT2)

## CCCCCCCCN1CCc2c(C)c(CC(=O)O)c(C)c(NC(=O)C(C)(C)C)c21 [pactimibe]
SOAT1 and SOAT2
  group of SOAT inhibitor from SI values: dual inhibitors (dual inhibitors (−1.00 ≤ SI ≤+1.00) inhibiting SOAT1 and SOAT2)
